Source: patent US5622947A, “Benzoheterocyclic compounds and vasopressin antagonist and oxytocin antagonist compositions containing a benzoheterocyclic compound” (Otsuka Pharmaceutical Co., Ltd., priority 1992, dated 1997)
Structures can show the parent of a compound that is named as a salt.

Biological target: T1, Oxytocin receptor (uterin muscle membrane preparation) (Rattus norvegicus, UniProt P70536)
T1 construct: was homogenized, which was used as a membrane; from tissue; host or cells: uterine muscle membranes from diethylstilbestrol-treated animals
T1 sequence (P70536 1-388): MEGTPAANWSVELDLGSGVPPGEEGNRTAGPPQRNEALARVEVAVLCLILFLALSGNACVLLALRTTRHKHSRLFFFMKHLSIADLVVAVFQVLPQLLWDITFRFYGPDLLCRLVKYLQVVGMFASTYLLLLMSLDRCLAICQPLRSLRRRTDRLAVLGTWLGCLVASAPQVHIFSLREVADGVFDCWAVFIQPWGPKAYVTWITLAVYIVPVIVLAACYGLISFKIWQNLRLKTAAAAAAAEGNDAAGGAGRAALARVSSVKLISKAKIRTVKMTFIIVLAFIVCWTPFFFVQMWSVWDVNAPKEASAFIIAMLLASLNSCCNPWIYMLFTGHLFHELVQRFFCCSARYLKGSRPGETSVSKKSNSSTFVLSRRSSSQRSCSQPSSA
Experiment: Oxytocin receptor binding assay
Settings: [3H]-oxytocin 10^-9 M, 25°, one hour, pH 8.0, uterin muscle membrane, DES-treated
Protocol: Test-5 Oxytocin receptor binding assay
In accordance with Chan's method [by W. Y. Chan, et al.: Endocrinology, 126, 2095-2101 (1990)], the uterin muscle benn injected subcutaneously with diethylstilbe-sterol (DES) the day before and was homogenized, which was used as a membrane prepara tion. The membrane preparation (0.2 mg), [^3 H]-oxytocin (100,000 dpm, 10^-9 M), a test compound (10^-9 to 10^-5 M) were incubated at 25°. for one hour in 100 mM Tris-HCl buffer (pH=8.0, 250 μl) containing 5 mM MgCl2, 1 mM EDTA and 0.1% BSA. The mixture was filtered through a glass filter (GF/F) so as to separate the membrane preparation combining with [^3 H]-oxytocin, then, was washed twicw with the buffer (5 ml). The glass filter was put into a vial and mixed with Aquasole (a liquid scintillation cocktail). The amount of [^3 H]-oxytocin combining w ith the membrane was measured by a liquid scintillation counter. The rate of the inhibitory effect of the test compound was calculated according to the equation as follows: […]
C1 : the amount of [^3 H]-oxytocin combining with the membrane in the presence of a test compound (in known amount),
C0 : the amount of [^3 H]-oxytocin combinig with the membrane in the absence of a test compound,
B: the amount of [^3 H]-oxytocin combining with the membrane in the presence of the excess amount of oxytocin (5×10^-6 M).
The results are expressed as IC50 values, which is the concentration of the test compound required to achieve the inhibitory effect in the rate of 50%.

| SMILES | IC50 |
| --- | --- |
| Cc1ccccc1C(=O)Nc1ccc(C(=O)N2CCCC(CCN3CCOCC3)c3cc(Cl)ccc32)c(C)c1 (centres unmarked) [Example 124, 5-Morpholinoethyl-7-chloro-1-[2-methyl-4-(2-methylbenzoylamino)benzoyl]-2,3,4,5-tetrahydro-1H-benzoazepine] | 2800 nM |
| CCN(CC)CCN(CC)C(=O)CC1CCCN(C(=O)c2ccc(NC(=O)c3ccccc3Cl)cc2OC)c2ccc(Cl)cc21 (centres unmarked) [Example 175, 5-[N-(2-Diethylaminoethyl)-N-ethylamino]-carbonylmethyl-7-chloro-1-[2-methoxy-4-(2-chlorobenzoylamino)benzoyl]-2,3,4,5-tetrahydro-1H-benzoazepine] | 13 nM |
| COc1cc(NC(=O)Cc2ccccc2C)ccc1C(=O)N1CCCC(OC(=O)CN(C)C)c2cc(Cl)ccc21 (centres unmarked) [Example 68, 5-(2-Dimethylaminoacetyloxy)-7-chloro-1-{2-methoxy-4-[2-(2-methylphenyl)acetylamino]benzoyl}-2,3,4,5-tetrahydro-1H-benzoazepine] | 230 nM |
| COc1cc(NC(=O)c2ccccc2Br)ccc1C(=O)N1CCCC(CC(=O)N2CCCC2)c2cc(F)ccc21 (centres unmarked) [Example 114] | 170 nM |
| COc1cc(C(=O)N2CCCC(OC(=O)[C@@H](N)CCCCN)c3cc(Cl)ccc32)ccc1NC(=O)c1ccccc1C (some centres unmarked) [Example 107] | 1300 nM |
| COc1cc(NC(=O)c2ccccc2Cl)ccc1C(=O)N1CCCC(OCCN2CCCN(C)CC2)c2cc(Cl)ccc21 (centres unmarked) [Example 180, 5-[2-(4-Methyl-1-homopiperazinyl)ethoxy]-7-chloro-1-[2-methoxy-4-(2-chlorobenzoylamino)benzoyl]-2,3,4,5-tetrahydro-1H-benzoazepine] | 284 nM |
| COc1cc(NC(=O)c2cccc3c2OCCC3)ccc1C(=O)N1CCCC(CC(=O)N2CCN(C)CC2)c2cc(Cl)ccc21 (centres unmarked) [Example 183] | 4410 nM |
| COc1cc(NC(=O)c2ccccc2Cl)ccc1C(=O)N1CCCC(OCCn2cncn2)c2cc(Cl)ccc21 (centres unmarked) [Example 176, 5-[2-(1,2,4-Triazol-1-yl)ethoxy]-7-chloro-1-[2-methoxy-4-(2-chlorobenzoylamino)benzoyl]-2,3,4,5-tetrahydro-1H-benzoazepine] | 387 nM |
| Cc1ccccc1C(=O)Nc1ccc(C(=O)N2CCCC(CC(=O)N3CCN(C)CC3)c3cc(Cl)ccc32)c(Cl)c1 (centres unmarked) [Example 108] | 1900 nM |
| COc1cc(NC(=O)c2ccccc2Br)ccc1C(=O)N1CCCC(CC(=O)N2CCC(NC(C)=O)CC2)c2cc(F)ccc21 (centres unmarked) [Example 60, 5-[(4-Acetylamino-1-piperidinyl)carbonylmethyl]-7-fluoro-1-[2-methoxy-4-(2-bromobenzoylamino)benzoyl]-2,3,4,5-tetrahydro-1H-benzoazepine] | 99 nM |
| COc1cc(NC(=O)c2ccccc2C)ccc1C(=O)N1CCCC(CC(=O)N2CCC(N(C)C)CC2)c2cc(F)ccc21 (centres unmarked) [Example 110] | 220 nM |
| COc1cc(NC(=O)c2ccccc2C)ccc1C(=O)N1CCCC(OC(=O)CN2CCOCC2)c2cc(Cl)ccc21 (centres unmarked) [Example 17, 5-(2-Morpholinoacetyloxy)-7-chloro-1-[2-methoxy-4-(2-methylbenzoylamino)benzoyl]-2,3,4,5-tetrahydro-1H-benzoazepine] | 46 nM |
| COc1cc(C(=O)N2CCCC(CC(=O)N3CCN(C)CC3)c3cc(Cl)ccc32)ccc1NC(=O)c1ccccc1Br (centres unmarked) [Example 119, 5-(4-Methyl-1-piperazinyl)carbonylmethyl-7-chloro-1-[3-methoxy-4-(2-bromobenzoylamino)benzoyl]-2,3,4,5-tetrahydro-1H-benzoazepine] | 270 nM |
| COc1cc(C(=O)N2CCCC(CC(=O)N3CCN(C)CC3)c3cc(Cl)ccc32)ccc1NC(=O)c1ccccc1Cl (centres unmarked) [Example 117, 5-(4-Methyl-1-piperazinyl)carbonylmethyl-7-chloro-1-[3-methoxy-4-(2-chlorobenzoylamino)benzoyl]-2,3,4,5-tetrahydro-1H-benzoazepine.cndot.hydrochlorid] | 320 nM |
| COc1cc(NC(=O)c2ccccc2Cl)ccc1C(=O)N1CCCC(CC(=O)N2CCN(c3ccccc3Cl)CC2)c2cc(Cl)ccc21 (centres unmarked) [Example 181] | 606 nM |
| CC(=O)N1CCN(CCC2CCCN(C(=O)c3ccc(NC(=O)c4ccccc4C)cc3Cl)c3ccc(Cl)cc32)CC1 (centres unmarked) [Example 174, 5-[2-(4-Acetyl-1-piperazinyl)ethyl]-7-chloro-1-[2-chloro-4-(2-methylbenzoylamino)benzoyl]-2,3,4,5-tetrahydro-1H-benzoazepine] | 1050 nM |
| COc1cc(C(=O)N2CCCC(CC(=O)N3CCCN(C)CC3)c3cc(Cl)ccc32)ccc1NC(=O)c1ccccc1Br (centres unmarked) [Example 185] | 162 nM |
| CC(=O)NC1CCN(CCCCOc2ccc(Cl)c(C(=O)Nc3ccc(C(=O)N4CCCCc5cc(Cl)ccc54)cc3)c2)CC1 [Example 184] | 3670 nM |

The remaining lines, values ahead:

| IC50 | SMILES |
| --- | --- |
| 280 nM | Cc1ccccc1C(=O)Nc1ccc(C(=O)N2CCCC(CC(N)=O)c3cc(Cl)ccc32)cc1 (centres unmarked) [Example 112, 5-Carbamoylmethyl-7-chloro-1-[4-(2-methylbenzoylamino)benzoyl]-2,3,4,5-tetrahydro-1H-benzoazepine] |
| 969 nM | CN1CCN(C(=O)CC2CCCN(C(=O)c3ccc(NC(=O)c4ccccc4)cc3)c3ccc(Cl)cc32)CC1 (centres unmarked) [Example 178, 5-(4-Methyl-1-piperazinyl)carbonylmethyl-7-chloro-1-(4-benzoylaminobenzoyl)-2,3,4,5-tetrahydro-1H-benzoazepine] |
| 250 nM | Cc1ccccc1C(=O)Nc1ccc(C(=O)N2CCCC(CC(=O)N(C)C)c3cc(Cl)ccc32)cc1 (centres unmarked) [Example 111, 5-Dimethylaminocarbonylmethyl-7-chloro-1-[4-(2-methylbenzoylamino)benzoyl]-2,3,4,5-tetrahydro-1H-benzoazepine] |
| 600 nM | Cc1ccccc1CC(=O)Nc1ccc(C(=O)N2CCCC(O)c3cc(Cl)ccc32)cc1 (centres unmarked) [Example 106, 5-Hydroxy-7-chloro-1-{4-[2-(2-methylphenyl)acetylamino]benzoyl}-2,3,4,5-tetrahydro-1H-benzoazepine] |
| 2190 nM | Cc1ccccc1C(=O)Nc1ccc(C(=O)N2CCCC(CC(N)=O)c3cc(Cl)ccc32)c(Cl)c1 (centres unmarked) [Example 173, 5-Carbamoylmethyl-7-chloro-1-[2-chloro-4-(2-methylbenzoylamino)benzoyl]-2,3,4,5-tetrahydro-1H-benzoazepine] |
| 4710 nM | CN(C)C(=O)CC1CCCN(C(=O)c2ccc(NC(=O)c3ccccc3OCCCCNC(C)(C)C)cc2)c2ccc(Cl)cc21 (centres unmarked) [Example 182] |
| 2200 nM | CNC(=O)CC1CCCN(C(=O)c2ccc(NC(=O)c3ccccc3Cl)cc2C)c2ccc(Cl)cc21 (centres unmarked) [Example 122, 5-Methylaminocarbonylmethyl-7-chloro-1-[2-methyl-4-(2-chlorobenzoylamino)benzoyl]-2,3,4,5-tetrahydro-1H-benzoazepine] |
| 2200 nM | Cc1cc(NC(=O)c2ccccc2Cl)ccc1C(=O)N1CCCC(CC(N)=O)c2cc(Cl)ccc21 (centres unmarked) [Example 123] |
| 3200 nM | Cc1ccccc1C(=O)Nc1ccc(C(=O)N2CCCC(CC(=O)N3CCC(N(C)C)CC3)c3cc(Cl)ccc32)c(C)c1 (centres unmarked) [Example 118, 5-(4-Dimethylamino-1-piperidinyl)carbonylmethyl-7-chloro-1-[2-methyl-4-(2-methylbenzoylamino)benzoyl]-2,3,4,5-tetrahydro-1H-benzoazepine.cndot.hydrochloride] |
| 610 nM | COc1cc(C(=O)N2CCCC(CC(=O)N(C)C)c3cc(Cl)ccc32)ccc1NC(=O)c1ccccc1C (centres unmarked) [Example 32, 5-Dimethylaminocarbonylmethyl-7-chloro-1-[3-methoxy-4-(2-methylbenzoylamino)benzoyl]-2,3,4,5-tetrahydro-1H-benzoazepine] |
| 2300 nM | C=CCNCCC1CCCN(C(=O)c2ccc(NC(=O)c3ccccc3Cl)cc2C)c2ccc(Cl)cc21 (centres unmarked) [Example 121, 5-(2-Allylaminoethyl)-7-chloro-1-[2-methyl-4-(2-chlorobenzoylamino)benzoyl]-2,3,4,5-tetrahydro-1H-benzoazepine] |
| 2100 nM | Cc1ccccc1C(=O)Nc1ccc(C(=O)N2CCCC(CC(=O)N3CCNCC3)c3cc(Cl)ccc32)c(C)c1 (centres unmarked) [Example 115] |
| 360 nM | Cc1ccccc1C(=O)Nc1ccc(C(=O)N2CCCC(CC(=O)N3CCN(C)CC3)c3cc(Cl)ccc32)cc1 (centres unmarked) [Example 109] |
| 250 nM | O=C(Nc1ccc(C(=O)N2CCCC(OCCO)c3cc(Cl)ccc32)cc1)c1ccccc1Cl (centres unmarked) [Example 113] |
